These results are taken from patent US10968178B2, “IP6K inhibitors” (TAKEDA PHARMACEUTICAL COMPANY LIMITED, priority 2017, dated 2021).

Holding throughout (assay type): biochemical
In one assay the target is T1, human IP6K2 (Homo sapiens, UniProt Q9UHH9).
T1 construct: human IP6K2 (1-426) gene; GST; made in house; host or cells: Sf-9 insect cells
T1 sequence (Q9UHH9 1-426): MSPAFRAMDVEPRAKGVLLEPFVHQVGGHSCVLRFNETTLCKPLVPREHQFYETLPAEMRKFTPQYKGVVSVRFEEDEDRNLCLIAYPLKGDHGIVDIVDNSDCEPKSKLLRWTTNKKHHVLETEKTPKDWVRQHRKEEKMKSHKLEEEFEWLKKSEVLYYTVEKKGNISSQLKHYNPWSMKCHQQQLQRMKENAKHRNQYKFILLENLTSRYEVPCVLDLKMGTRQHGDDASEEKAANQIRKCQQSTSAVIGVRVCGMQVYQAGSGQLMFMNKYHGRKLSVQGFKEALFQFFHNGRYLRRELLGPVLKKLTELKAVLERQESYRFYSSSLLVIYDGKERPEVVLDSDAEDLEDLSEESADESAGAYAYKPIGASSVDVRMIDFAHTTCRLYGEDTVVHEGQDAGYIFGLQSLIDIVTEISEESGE
The assay is described as follows: IP6K enzyme inhibitory assay (ADP-Glo Kinase Assay), human IP6K2. Particulars: compound concentration 0.1 μM; read-out: ADP-Glo method inhibitory rate (%) human IP6K2. The procedure: (§1) IP6K Enzyme Inhibitory Assay
(§2) Human IP6K3 enzyme was prepared by transducing human IP6K3 (1-410) gene into BL21 (DE3) Escherichia coli and purifying by Ni-NTA (nickel-nitrilotriacetic acid) affinity column. […] The enzymes were used after preservation at −70° C. The IP6K enzyme inhibitory activity of the test compound was measured by the following experiment method and using ADP-Glo™ Kinase Assay (manufactured by Promega). A test compound diluted with an assay buffer (20 mM HEPES (pH 7.5), 6 mM MgCl2, 0.01% Tween-20, 1 mM DTT) was first added by 2 μL to a 384 well plate. […] The IP6K enzyme solution diluted with the assay buffer was added by 2 μL to start the enzyme reaction. Incubation was performed at room temperature for a given time (120 min for rat IP6K3 alone, 60 min for others). After incubation at room temperature, ADP-Glo solution prepared according to the protocol of Promega was added by 3 μL to the 384 well plate and reacted at room temperature for 30 min. Thereafter, Kinase-Detection solution was added by 6 μL to the 384 well plate and reacted at room temperature for 60 min. After the reaction, the luminescence intensity was measured by a plate reader Envision (manufactured by PerkinElmer).
(In ADP-Glo the light output rises with the ADP produced.)

In the next assay the target is T2, human IP6K1 (Homo sapiens, UniProt Q92551).
T2 construct: human IP6K1 (1-441) gene; GST; made in house; host or cells: Sf-9 insect cells
T2 sequence (Q92551 whole entry): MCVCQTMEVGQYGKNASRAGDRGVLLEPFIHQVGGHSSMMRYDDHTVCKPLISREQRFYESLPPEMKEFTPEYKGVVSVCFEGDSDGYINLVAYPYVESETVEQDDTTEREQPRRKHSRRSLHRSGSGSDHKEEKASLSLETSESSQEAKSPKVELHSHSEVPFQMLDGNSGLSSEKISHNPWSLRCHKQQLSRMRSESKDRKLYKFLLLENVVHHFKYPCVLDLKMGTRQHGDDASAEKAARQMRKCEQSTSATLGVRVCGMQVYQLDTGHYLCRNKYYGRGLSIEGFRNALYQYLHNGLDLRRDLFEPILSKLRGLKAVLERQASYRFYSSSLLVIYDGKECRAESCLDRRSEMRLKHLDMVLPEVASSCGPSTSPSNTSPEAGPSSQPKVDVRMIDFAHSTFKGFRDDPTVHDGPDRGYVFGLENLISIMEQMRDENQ
The assay is described as follows: IP6K enzyme inhibitory assay (ADP-Glo Kinase Assay), human IP6K1. The following applies: compound concentration 0.1 μM; read-out: ADP-Glo method inhibitory rate (%) human IP6K1. The procedure:
as §1, §2

Another assay concerns the target T3, human IP6K3 (Homo sapiens, UniProt Q96PC2).
T3 construct: human IP6K3 (1-410) gene; made in house; host or cells: BL21 (DE3) Escherichia coli
T3 sequence (Q96PC2 1-410): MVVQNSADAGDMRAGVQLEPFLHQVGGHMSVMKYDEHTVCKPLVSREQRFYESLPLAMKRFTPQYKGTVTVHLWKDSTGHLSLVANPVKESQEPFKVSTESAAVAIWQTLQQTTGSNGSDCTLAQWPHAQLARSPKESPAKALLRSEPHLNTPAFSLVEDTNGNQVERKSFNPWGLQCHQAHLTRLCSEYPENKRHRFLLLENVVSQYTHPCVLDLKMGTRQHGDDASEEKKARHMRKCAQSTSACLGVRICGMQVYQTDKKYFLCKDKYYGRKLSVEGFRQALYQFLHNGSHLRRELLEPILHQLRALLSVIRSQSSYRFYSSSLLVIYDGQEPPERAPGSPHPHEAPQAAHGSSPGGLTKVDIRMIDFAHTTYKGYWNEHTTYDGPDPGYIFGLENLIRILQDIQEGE
The assay is described as follows: IP6K enzyme inhibitory assay (ADP-Glo Kinase Assay), human IP6K3. Particulars: compound concentration 0.1 μM; read-out: ADP-Glo method inhibitory rate (%) human IP6K3. The procedure:
as §1, §2

As to `O=C(O)c1ccc2c(c1)[C@]1(CC[C@@H](Oc3ccccc3Cl)CC1)C(=O)N2` [Example 12, (1r,4r)-4-(2-chlorophenoxy)-2′-oxo-1′,2′-dihydrospiro[cyclohexane-1,3′-indole]-5′-carboxylic acid], the inhibition at 0.1 µM is 97% at human IP6K2, 95% at human IP6K1 and 101% at human IP6K3.
For `O=C(O)c1ccc2c(c1)[C@]1(CC[C@H](Oc3ncc(F)cc3F)CC1)C(=O)N2` [Example 13, (1s,4s)-4-((3,5-difluoropyridin-2-yl)oxy)-2′-oxo-1′,2′-dihydrospiro[cyclohexane-1,3′-indole]-5′-carboxylic acid], the inhibition at 0.1 µM at human IP6K2 is 97%; at human IP6K1 it was 100%; at human IP6K3 it was 100%.
For the compound `O=C(O)c1ccc2c(c1)[C@]1(CC[C@H](Oc3ccc(Cl)cc3Cl)CC1)C(=O)N2` [Example 15, (1s,4s)-4-(2,4-dichlorophenoxy)-2′-oxo-1′,2′-dihydrospiro[cyclohexane-1,3′-indole]-5′-carboxylic acid], the inhibition at 0.1 µM at human IP6K2 is 101%; at human IP6K1, 99%; at human IP6K3, 91%.
Taken in the same sequence, the figures for `O=C(O)c1ccc2c(n1)[C@]1(CC[C@@H](Oc3ncc(C4CC4)cc3Cl)CC1)C(=O)N2` [Example 16, (1r,4r)-4-((3-chloro-5-cyclopropylpyridin-2-yl)oxy)-2′-oxo-1′,2′-dihydrospiro[cyclohexane-1,3′-pyrrolo[3,2-b]pyridine]-5′-carboxylic acid] were 89%, 99% and 98%.
Turning to `Cc1cc(Cl)cnc1O[C@H]1CC[C@@]2(CC1)C(=O)Nc1ccc(C(=O)O)nc12` [Example 17, (1r,4r)-4-((5-chloro-3-methylpyridin-2-yl)oxy)-2′-oxo-1′,2′-dihydrospiro[cyclohexane-1,3′-pyrrolo[3,2-b]pyridine]-5′-carboxylic acid], the inhibition at 0.1 µM at human IP6K2 came out at 91%; at human IP6K1, 92%; at human IP6K3 it was 93%.
Taken in the same sequence, the figures for `Cc1ccc(C(F)(F)F)c(O[C@H]2CC[C@@]3(CC2)C(=O)Nc2ccc(C(=O)O)nc23)n1` [Example 18, (1r,4r)-4-((6-methyl-3-(trifluoromethyl)pyridin-2-yl)oxy)-2′-oxo-1′,2′-dihydrospiro[cyclohexane-1,3′-pyrrolo[3,2-b]pyridine]-5′-carboxylic acid] were 62%, 54% and 77%.
Turning to `O=C(O)c1ccc2c(c1)[C@]1(CC[C@@H](Oc3ccccn3)CC1)C(=O)N2` [Example 19, (1r,4r)-2′-oxo-4-[pyridin-2-yloxy)-1′,2′-dihydrospiro[cyclohexane-1,3′-indole]-5′-carboxylic acid], the inhibition at 0.1 µM at human IP6K2 stood at 45%; at human IP6K1 it was 40%; on human IP6K3, 70%.
Taken in the same sequence, the figures for `Cc1ccc(O[C@H]2CC[C@@]3(CC2)C(=O)Nc2ccc(C(=O)O)cc23)nc1` [Example 20, (1r,4r)-4-((5-methylpyridin-2-yl)oxy)-2′-oxo-1′,2′-dihydrospiro[cyclohexane-1,3′-indole]-5′-carboxylic acid] were 95%, 79% and 98%.
With `Cc1cccnc1O[C@H]1CC[C@@]2(CC1)C(=O)Nc1ccc(C(=O)O)cc12` [Example 21, (1r,4r)-4-((3-methylpyridin-2-yl)oxy)-2′-oxo-1′,2′-dihydrospiro[cyclohexane-1,3′-indole]-5′-carboxylic acid], the inhibition at 0.1 µM on human IP6K2 was found to be 91%; on human IP6K1, 79%; on human IP6K3 it was 96%.
As for `O=C(O)c1ccc2c(c1)[C@]1(CC[C@@H](Oc3ccc(F)cn3)CC1)C(=O)N2` [Example 22, (1r,4r)-4-((5-fluoropyridin-2-yl)oxy)-2′-oxo-1′,2′-dihydrospiro[cyclohexane-1,3′-indole]-5′-carboxylic acid], the figures for the inhibition at 0.1 µM at human IP6K2, at human IP6K1 and on human IP6K3 were 72%, 72% and 90%, respectively.
As for `O=C(O)c1ccc2c(c1)[C@]1(CC[C@@H](Oc3cc(Cl)ccn3)CC1)C(=O)N2` [Example 23, (1r,4r)-4-((4-chloropyridin-2-yl)oxy)-2′-oxo-1′,2′-dihydrospiro[cyclohexane-1,3′-indole]-5′-carboxylic acid], the inhibition at 0.1 µM at human IP6K2 was 79%; on human IP6K1, 72%; on human IP6K3, 92%.
The matching figures for `O=C(O)c1ccc2c(c1)[C@]1(CC[C@@H](Oc3ncccc3Cl)CC1)C(=O)N2` [Example 24, (1r,4r)-4-((3-chloropyridin-2-yl)oxy)-2′-oxo-1′,2′-dihydrospiro[cyclohexane-1,3′-indole]-5′-carboxylic acid]: 92%, 86% and 92%.
`O=C(O)c1ccc2c(c1)[C@]1(CC[C@@H](Oc3ccc(C(F)(F)F)cn3)CC1)C(=O)N2` [Example 25, (1r,4r)-2′-oxo-4-((5-(trifluoromethyl)pyridin-2-yl)oxy)-1′,2′-dihydrospiro[cyclohexane-1,3′-indole]-5′-carboxylic acid]: the figures for the inhibition at 0.1 µM on human IP6K2, at human IP6K1 and at human IP6K3 were 97%, 95% and 98%, respectively.
The matching figures for `Cc1ccc(C(F)(F)F)c(O[C@H]2CC[C@@]3(CC2)C(=O)Nc2ccc(C(=O)O)cc23)n1` [Example 26]: 97%, 98% and 92%.
On to `O=C(O)c1ccc2c(c1)[C@]1(CC[C@@H](Oc3ncc(C(F)(F)F)cc3F)CC1)C(=O)N2` [Example 27, (1r,4r)-4-((3-fluoro-5-(trifluoromethyl)pyridin-2-yl)oxy)-2′-oxo-1′,2′-dihydrospiro[cyclohexane-1,3′-indole]-5′-carboxylic acid], for which the inhibition at 0.1 µM was found to be 93% on human IP6K2, 97% at human IP6K1 and 96% at human IP6K3.
The matching figures for `O=C(O)c1ccc2c(c1)[C@]1(CC[C@@H](Oc3ncc(Cl)cc3C(F)(F)F)CC1)C(=O)N2` [Example 28, (1r,4r)-4-((5-chloro-3-(trifluoromethyl)pyridin-2-yl)oxy)-2′-oxo-1′,2′-dihydrospiro[cyclohexane-1,3′-indole]-5′-carboxylic acid]: 98%, 95% and 96%.
The matching figures for `O=C(O)c1ccc2c(c1)[C@]1(CC[C@@H](Oc3ncc(C(F)(F)F)cc3Cl)CC1)C(=O)N2` [Example 29, (1r,4r)-4-((3-chloro-5-(trifluoromethyl)pyridin-2-yl)oxy)-2′-oxo-1′,2′-dihydrospiro[cyclohexane-1,3′-indole]-5′-carboxylic acid]: 96%, 99% and 99%.
The matching figures for `O=C(O)c1ccc2c(c1)[C@]1(CC[C@@H](Oc3cc(OCc4ccccc4)ccn3)CC1)C(=O)N2` [Example 30, (1r,4r)-4-((4-(benzyloxy)pyridin-2-yl)oxy)-2′-oxo-1′,2′-dihydrospiro[cyclohexane-1,3′-indole]-5′-carboxylic acid]: 84%, 81% and 97%.
